PMC5464637, “Identification of key amino acid residues in the hTGR5–nomilin interaction and construction of its binding model” (PLoS ONE, 2017)
Changes are numbered by the printed parent chain. pEC50: −log10 of the molar value.

What was measured:
[1] = molecular target: T1, mTGR5-WT (Mus musculus, UniProt Q80SS6); experiment: CRE-luciferase reporter assay in HEK293 cells transfected with mTGR5-WT; type: cell-based; conditions: for agonist activity (CRE-luciferase response): 100 μM, 5 h, HEK293; for EC50: CRE-luciferase dose-response, HEK293, n = 3
T1 construct: expressed in transfected cells; host or cells: HEK293
T1 sequence (Q80SS6 1-329): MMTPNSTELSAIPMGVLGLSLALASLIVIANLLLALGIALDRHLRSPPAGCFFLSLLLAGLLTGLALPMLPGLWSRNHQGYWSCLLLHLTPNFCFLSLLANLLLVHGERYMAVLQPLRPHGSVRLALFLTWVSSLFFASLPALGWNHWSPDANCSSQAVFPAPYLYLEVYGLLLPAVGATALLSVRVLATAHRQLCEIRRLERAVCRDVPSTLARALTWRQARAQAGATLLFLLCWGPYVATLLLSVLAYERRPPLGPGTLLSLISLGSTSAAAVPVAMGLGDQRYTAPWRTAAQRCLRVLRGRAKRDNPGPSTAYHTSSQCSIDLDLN
Protocol: (§1) HEK293 cells were plated in 12-well plates at a density of 1.0 × 10^5 cells/well. Twenty hours later, the cells were transfected with pCRE-Luc, p3×FLAG-CMV-TGR5, and pEF-β-galactosidase (100 ng/well each) using the calcium phosphate method. After 4 h of incubation, the medium was replaced with DMEM, which contained 10% dextran charcoal-stripped FBS. Twenty-four hours after transfection, the cells were treated with the previously mentioned compounds and control vehicle (DMSO). After 5 h, the cells were then incubated with lysis buffer (25 mM Tris-phosphate [pH 7.8], 2 mM dithiothreitol [DTT], 2 mM trans-1,2-Diaminocyclohexane-N,N,N, N′-tetraacetic acid [CDTA], 10% glycerol, and 1% Triton X-100) on ice, and the luciferase and β-galactosidase activity were measured. The luciferase activity values were divided by those of β-galactosidase to obtain normalized luciferase values.

[2] = molecular target: T2, hTGR5-Q77R/R80Q/Y89H (Homo sapiens, UniProt Q8TDU6, Q77R/R80Q/Y89H); experiment: CRE-luciferase reporter assay in HEK293 cells transfected with human-to-mouse triple mutant TGR5; conditions: for EC50: CRE-luciferase dose-response, HEK293, n = 3; for agonist activity (CRE-luciferase response): HEK293
T2 sequence (Q8TDU6 1-330 Q77R/R80Q/Y89H): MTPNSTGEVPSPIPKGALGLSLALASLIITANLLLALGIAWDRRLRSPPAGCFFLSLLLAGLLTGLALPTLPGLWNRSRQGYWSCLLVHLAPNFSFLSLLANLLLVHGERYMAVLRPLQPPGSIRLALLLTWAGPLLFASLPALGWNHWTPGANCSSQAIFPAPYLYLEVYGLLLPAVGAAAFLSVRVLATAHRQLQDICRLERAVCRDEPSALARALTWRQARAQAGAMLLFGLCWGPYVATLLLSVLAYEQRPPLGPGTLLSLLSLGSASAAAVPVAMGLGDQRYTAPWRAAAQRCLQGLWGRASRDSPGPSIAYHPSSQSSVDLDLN

[3] = molecular target: T3, hTGR5-WT (Homo sapiens, UniProt Q8TDU6); experiment: CRE-luciferase reporter assay in HEK293 cells transfected with hTGR5-WT; type: cell-based; conditions: for agonist activity (CRE-luciferase response): hTGR5-WT, 100 μM, 5 h, HEK293
T3 construct: expressed in transfected cells; host or cells: HEK293
T3 sequence (Q8TDU6 1-330): T2 sequence (Q8TDU6 1-330 Q77R/R80Q/Y89H) with R77Q, Q80R, H89Y
Protocol: as §1

[4] = molecular target: T4, mTGR5-R76Q/Q79R/H88Y (Mus musculus, UniProt Q80SS6, H88Y/Q79R/R76Q); experiment: CRE-luciferase reporter assay in HEK293 cells transfected with mouse-to-human triple mutant TGR5; conditions: for agonist activity (CRE-luciferase response): mTGR5-R76Q/Q79R/H88Y, HEK293
T4 sequence (Q80SS6 1-329 R76Q/Q79R/H88Y): T1 sequence (Q80SS6 1-329) with R76Q, Q79R, H88Y

[5] = test system: hTGR5-Q77A/R80A/Y89A; conditions: 100 μM, 5 h, HEK293
Protocol: as §1
(PDF) Click here for additional data file.

SMILES | agonist activity (CRE-luciferase response) [1] | EC50 [1] | EC50 [2] | agonist activity (CRE-luciferase response) [2] | pEC50 [3] | agonist activity (CRE-luciferase response) [3] | pEC50 [4] | agonist activity (CRE-luciferase response) [4] | agonist activity (CRE-luciferase response) [5]
CC1(C)OC(=O)C=C[C@]2(C)[C@H]3CC[C@@]4(C)[C@H](c5ccoc5)OC(=O)[C@H]5O[C@]54[C@]3(C)C(=O)C[C@@H]12 [obacunone] | very weak obacunone response | undetectable | undetectable | very weak obacunone response | 3.83 | stronger agonist activity for hTGR5 than it does for mTGR5 | 3.78 | equally intense obacunone responses | 
CC(=O)O[C@H]1CC(=O)OC(C)(C)[C@@H]2CC(=O)[C@]3(C)[C@H](CC[C@@]4(C)[C@H](c5ccoc5)OC(=O)[C@H]5O[C@]543)[C@@]12C [nomilin] | considerably weaker agonist activity for mTGR5 than it does for hTGR5 | undetectable | undetectable | very weak nomilin response identical to that of mTGR5 | 4.63 |  | 4.34 | strong nomilin response equal to that of hTGR5-WT | very weak nomilin response relative to WT-hTGR5
CC1(C)O[C@H]2CC(=O)OC[C@]23[C@H]2CC[C@@]4(C)[C@H](c5ccoc5)OC(=O)[C@H]5O[C@]54[C@]2(C)C(=O)C[C@@H]13 [limonin] |  |  |  |  |  | very weak hTGR5 agonist activity |  |  | 
